“Also recorded” adds a separate entry of the source.

For one assay, the system named is live strain of bacteria. Description: murine myositis model, infection vs sterile inflammation, PET SUV / Patlak / CFU correlation (strain not stated at the result). The format is in vivo, mice. The source says:
(§1) Referring now to FIGS. 2A-2D, a murine myositis model of musculoskeletal infection was used to determine whether [^18F]FMtl could differentiate sterile inflammation from infection in vivo by inoculating the right triceps brachii with a live strain of bacteria and the left triceps brachii with 10× heat-killed bacteria to generate an inflammatory response.
To quantify PET signal, volumes of interest (VOIs) were generated in the upper limbs of mice using CT for anatomical localization. […] Biodistribution studies were performed in successive cohorts of mice over 3 hours to determine dosimetry of [^18F]FMtl. […] Static PET SUV were correlated with bacterial colony-forming units (CFU) from excised tissue to determine sensitivity of [^18F]FMtl (see FIG. 2C), indicating [^18F]FMtl can reliably detect as little as 5 log10 (CFU/mL) of bacteria in vivo by SUV. It was also investigated whether parametric mapping could increase bacterial sensitivity of [^18F]FMtl in vivo, as Patlak slope (K,) is a quantitative measure of rate of uptake in tissue, rather than SUV, which is semi-quantitative and cannot delineate signal from blood pool contamination and tissue. Parametric imaging improved the bacterial sensitivity of [^18F]FMtl by roughly 20-fold (log10 CFU=1.3; 1.7×10^6 improved to […]) (see FIG. 2D).

In assay [1] the test system is S. aureus. Description: competitive uptake assay of [^18F]FMtl in the presence of unlabeled D-mannitol. The format is cell-based. The conditions noted are these: co-incubation in S. aureus cultures, FIG. 1C. On the procedure:
FIG. 1C is a graph showing a competitive uptake assay of [^18F]FMtl in the presence of unlabeled D-mannitol in S. aureus;
(§2) Accumulation of [^18F]FMtl was also evaluated in a broad panel of bacterial strains.

Assay [2] deals with S. aureus. As to the kind of experiment: mixed infection (polymicrobial) myositis model, PET/CT, S. aureus-infected left triceps brachii. The format is in vivo, mice. The settings on record: for postmortem gamma counting of tissues: S. aureus-infected muscle. From the text:
(§3) Referring now to FIGS. 3A-3B, the sensitivity of [^18F]FMtl compared to [^18F]FDS was also investigated in a mixed infection (polymicrobial) model. [^18F]FDS has shown remarkable specificity for Enterobacteriaceae in vivo, but has limited to no sensitivity toward gram-positive and other gram-negative organisms. Mice were inoculated with live E. coli (8.4×10^6 CFU) and S. aureus (8.8×10^6 CFU) in the right and left triceps brachii, respectively.

For assay [3], the system named is E. coli. As to the kind of experiment: mixed infection (polymicrobial) myositis model, PET/CT, E. coli-infected right triceps brachii. The format is in vivo, mice. The conditions noted are these: for postmortem gamma counting of tissues: E. coli-infected muscle; for E. coli SUV, [^18F]FMtl versus [^18F]FDS: P=0.11.
From the text: as §3

Assay [4] relates to S. aureus. Description: in vitro accumulation of radiotracer in S. aureus cultures (gamma counts). The settings on record: for accumulation in S. aureus cultures, tracer comparison: FIG. 1D, FMtl vs FDS P<0.001. The format is cell-based. On the procedure:
as §2

Assay [5] concerns broad panel of bacterial strains. Description: uptake in a broad panel of bacterial strains (pathogens of clinical interest). The format is cell-based. The settings on record: 60 minutes of incubation, FIG. 1B. On the procedure: FIG. 1B is a graph showing uptake of [^18F]FMtl in pathogens of clinical interest, determined at 60 minutes of incubation;
as §2

Assay [6] relates to S. aureus. Description: murine myositis model, live vs 10× heat-killed bacteria, PET imaging (S. aureus). The settings on record: gram-positive strain; infected vs inflamed triceps brachii, FIG. 2A. In kind it is in vivo, mice.
From the text: as §1

Assay [7] has as its system E. coli. Description: in vitro accumulation of radiotracer in E. coli cultures (gamma counts). In kind it is cell-based. As to the method: as §2
Assay [8] has as its system E. coli. Description: murine myositis model, live vs 10× heat-killed bacteria, PET imaging (E. coli). The format is in vivo, mice. The conditions noted are these: gram-negative strain; infected vs inflamed triceps brachii, FIG. 2A.
From the text: as §1

In assay [9] the test system is S. aureus. As to the kind of experiment: serial [^18F]FMtl PET during vancomycin treatment of S. aureus myositis. In kind it is in vivo, mice. The settings on record: FIG. 7A. On the procedure:
A growing incidence of antimicrobial resistance in many bacterial pathogens is a serious concern, as treatment failure is a major threat to global health. Inappropriate antibiotic use is also the primary driver of antibiotic resistance, which places undue risk onto patients for adverse events such as allergic reactions and C. difficile infection. […] Mice were inoculated with S. areus in the right triceps brachii and imaged 8 hours post-infection with [^18F]FMtl, prior to initiation of vancomycin treatment (100 mg/kg every 8 hours, IP) and subsequently imaged at 24 and 72 hours post-treatment. […] The accumulation of [^18F]FMtl was further investigated in a panel of bacterial isolates from infected combat wounds of military service members (see FIG. 7B).

A further assay relates to A. baumannii. As to the kind of experiment: laceration wound model infected with A. baumannii, [^18F]FMtl PET. In kind it is in vivo. The settings on record: A. baumannii and several other ESKAPE pathogens. From the text:
In an exemplary embodiment, [^18F]FMtl was able to differentiate sterile inflammation and bacterial infection resulting from S. aureus and E. coli in vivo in a murine myositis model using PET imaging. Exemplary embodiments of the present disclosure were extended to a laceration wound model infected with A. baumannii, an important pathogen in the nosocomial and battlefield setting. […] [^18F]FMtl PET was also able to monitor therapeutic efficacy of vancomycin against S. aureus in vivo. The ease of production of [^18F]FMtl facilitates wide dissemination from any radiopharmacy.

For the compound “2-[^18F]fluoro-2-deoxy-glucose [[^18F]FDG, reference compound]”, the “differences in SUV between sites of infection and inflammation” value in the assay with live strain of bacteria (FIG. 2B) is “unable to demonstrate significant differences in SUV”. Also, the “ability to distinguish infection from inflammation (PET)” value in the assay with live strain of bacteria (infected vs inflamed triceps brachii) is “unable to distinguish infection from inflammation”.

As to `OC[C@@H](O)[C@@H](O)[C@H](O)[C@H](O)CO` [D-mannitol], the “concentration of D-mannitol that blocked [^18F]FMtl accumulation in bacteria” value in the assay with S. aureus [1] was at least 10 µg/mL.

For `OC[C@@H](O)[C@@H](O)[C@H](O)[C@@H]([18F])CO` [[^18F]FDS, 2-[^18F]fluoro-2-deoxy-sorbitol], the “postmortem gamma counting of tissues” value in the assay on S. aureus [2] and with E. coli [3] was “only accumulated in E. coli-infected muscle” each time. In the assay with E. coli [3] (P=0.007), the “specificity, E. coli compared to S. aureus infection” value was “high specificity for E. coli compared to S. aureus”. In addition, in the assay on E. coli [3], the “E. coli SUV, [^18F]FMtl versus [^18F]FDS” value is given as “no significant differences”. Besides, in the assay with S. aureus [4], the “accumulation in S. aureus cultures, tracer comparison” value is on record as “not significantly different to negative control”.

With `OC[C@@H](O)[C@@H](O)[C@H](O)[C@H]([18F])CO` [[^18F]FMtl, [^18F]fluoromannitol], the “SUV / accumulation, E. coli versus S. aureus infection in the same animal” value in the assay with S. aureus [2] (E. coli 8.4×10^6 CFU right, S. aureus 8.8×10^6 CFU left, P=0.19) was “No significant differences in SUV; also recorded: indistinguishable accumulation”. Moreover, the “accumulation in S. aureus infection, compared to [^18F]FDS” value in the assay on S. aureus [2] (P<0.001) is recorded as “significantly higher”. In addition, the “postmortem gamma counting of tissues” value with S. aureus [2] is “uptake in both S. aureus and E. coli”; with E. coli [3], “uptake in both S. aureus and E. coli”. Moreover, in the assay with live strain of bacteria (Patlak parametric mapping), the “bacterial sensitivity with parametric imaging” value is reported as 7.0×10^5 CFU. Also, the “bacterial sensitivity before parametric imaging” value in the assay on live strain of bacteria (SUV) was 1.7×10^6 CFU. Besides, in the assay on live strain of bacteria (dynamic imaging, intravenous injection), the “time post-injection to significant differences in PET signal (infection detected and differentiated)” value came out at 5 min. Also, the “gamma counting of excised triceps brachii after scans” value in the assay on live strain of bacteria (ex vivo, infected vs inflamed tissue) is given as “increased PET signal in the infected tissue compared to inflamed”. The “bacteria reliably detected in vivo using the clinical standard SUV” value with live strain of bacteria (mouse, in vivo) is 10^5 CFU. Besides, in the assay on live strain of bacteria (mouse, in vivo), the “sensitivity between E. coli and S. aureus” value is given as “did not diminish”. In the assay with live strain of bacteria (static PET SUV correlated with CFU from excised tissue, FIG. 2C), the “bacteria reliably detected in vivo by SUV (sensitivity)” value was 5 log10 (CFU/mL). For the same compound, the “increase of standardized uptake value (SUV) at infection compared to contralateral site of inflammation” value with live strain of bacteria (summed frames 45-60 minutes post-injection, FIG. 2B) worked out at 3.5 fold. The “strains excepted from rapid and significant accumulation” value in assay [5] was “P. aeruginosa and E. faecium”. Besides, the “accumulation in bacterial strains” value in assay [5] (all strains tested except P. aeruginosa and E. faecium) was “rapid and significant accumulation”. Further, in the assay with E. coli [3], the “E. coli SUV, [^18F]FMtl versus [^18F]FDS” value is “no significant differences”. The “accumulation at site of infection (PET)” value in the assay with S. aureus [6] and in the assay on E. coli [8] was “specifically accumulated in the site of infection” each time. In addition, in the assay on E. coli [7] (FIG. 1D), the “accumulation in E. coli cultures, tracer comparison” value is reported as “accumulated”. Moreover, the “incorporation of tracer over time” value with E. coli [7] (heat-killed bacteria) is reported as “not heat-killed bacteria”; with E. coli [7] (live E. coli cultures), “readily incorporated”; in the assay with S. aureus [4] (heat-killed bacteria), “not heat-killed bacteria”; with S. aureus [4] (live S. aureus cultures, FIG. 1A), “readily incorporated”. In addition, in the assay on S. aureus [9] (vancomycin treatment), the “relation of PET signal to CFU burden during treatment” value is recorded as “correlating closely with CFU burden”. In addition, the “accumulation in S. aureus cultures, tracer comparison” value in the assay with S. aureus [4] is given as “significantly higher”. Further, in the assay with S. aureus [4] (P=0.64), the “accumulation in S. aureus versus E. coli cultures” value is reported as “not significantly different”. Moreover, the “detection of infection by PET” value in the assay with A. baumannii was “rapidly and specifically detected”.

For `CN[C@H](CC(C)C)C(=O)N[C@H]1C(=O)N[C@@H](CC(N)=O)C(=O)N[C@H]2C(=O)N[C@H]3C(=O)N[C@H](C(=O)N[C@H](C(=O)O)c4cc(O)cc(O)c4-c4cc3ccc4O)[C@H](O)c3ccc(c(Cl)c3)Oc3cc2cc(c3O[C@@H]2O[C@H](CO)[C@@H](O)[C@H](O)[C@H]2O[C@H]2C[C@](C)(N)[C@H](O)[C@H](C)O2)Oc2ccc(cc2Cl)[C@H]1O` [vancomycin, reference compound], the “[^18F]FMtl PET signal during treatment” value in the assay on S. aureus [9] (vancomycin 100 mg/kg every 8 hours, IP, imaged 8 hours post-infection, 24 and 72 hours post-treatment) is “diminished over the course of treatment”.

Values taken from patent publication US20260174854A1, “Systems And Methods For Imaging Diverse Pathogenic Bacteria In Vivo With [18F]Fluoromannitol Positron Emission Tomography” (priority 2022, published 2026).
